From the NIST ThermoML archive (doi:10.1016/j.jct.2005.03.012)
± gives the expanded uncertainty stated by the source.

Assay: molar heat capacity at constant pressure
Conditions: Liquid, Flow calorimetry

CO [methanol]
molar heat capacity at constant pressure [J/K/mol]
Conditions	248.15 K	273.15 K	298.15 K	323.15 K	348.15 K	373.15 K	398.15 K	423.15 K	473.15 K
500 kPa	74.02 ± 0.26	77.03 ± 0.26	81.39 ± 0.29	86.87 ± 0.29	93.66 ± 0.32	101.83 ± 0.35	–	–	–
1000 kPa	74.02 ± 0.26	77 ± 0.26	81.35 ± 0.29	86.8 ± 0.29	93.59 ± 0.32	101.76 ± 0.35	111.86 ± 0.38	–	–
2500 kPa	73.95 ± 0.26	76.93 ± 0.26	81.19 ± 0.29	86.64 ± 0.29	93.43 ± 0.32	101.41 ± 0.35	111.28 ± 0.38	122.98 ± 0.42	–
5000 kPa	73.89 ± 0.26	76.84 ± 0.26	81.07 ± 0.29	86.45 ± 0.29	93.18 ± 0.32	101 ± 0.35	110.38 ± 0.38	121.41 ± 0.42	162.32 ± 0.54
7500 kPa	73.79 ± 0.26	76.8 ± 0.26	81.03 ± 0.29	86.29 ± 0.29	92.92 ± 0.32	100.64 ± 0.35	109.58 ± 0.35	120.03 ± 0.42	152.94 ± 0.51
10000 kPa	73.79 ± 0.26	76.77 ± 0.26	80.91 ± 0.26	86.13 ± 0.29	92.73 ± 0.32	100.23 ± 0.32	108.97 ± 0.35	118.84 ± 0.38	146.91 ± 0.48
12500 kPa	73.76 ± 0.26	76.74 ± 0.26	80.91 ± 0.26	86 ± 0.29	92.41 ± 0.32	99.97 ± 0.32	108.33 ± 0.35	117.85 ± 0.38	142.75 ± 0.48
